Experiments:
[1] = system: S. aureus Newman; experiment: Bliss interaction score (quartile over a dose matrix) (fitness difference); higher = more antagonism (negative = synergy)
In short: (§1)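 Fitness here means normalised growth, inferred for single drugs from the combination data. Growth was OD595 at entry into stationary phase, divided by the plate's robust no-drug mean and capped at 1. The Bliss score is observed minus expected fitness, with the expectation being the product, and its quartiles span technical, biological and donor/recipient replicates.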

[2] = system: B. subtilis 168; experiment: as above
In short: as §1

[3] = system: S. pneumoniae D39V; experiment: as above
In short: as §1

[4] = system: S. aureus DSM 20231; experiment: as above
In short: as §1

[5] = system: B. subtilis 168; experiment: fitness (endpoint OD595 vs no drug) (fraction); higher = more growth
In short: (§2)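 Fitness expresses the optical density reached at the stationary-phase transition as a fraction of the robust mean of no-drug control wells. It is capped at 1. Measurements were OD595 every 30 min for 14 h at 37 °C after inoculation of 384-well plates at OD595 0.01 (30 µl, or 55 µl for S. pneumoniae), minus the first reading.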

[6] = system: S. pneumoniae D39V; experiment: as above
In short: as §2
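For Bliss interaction score (quartile over a dose matrix) in this document: first quartile when negative (synergy) and third quartile when positive (antagonism).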
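For fitness (endpoint OD595 vs no drug) in this document: OD595 on entry to stationary phase over no-drug wells; at most 1.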

C[C@H]1c2cccc(O)c2C(=O)C2=C(O)[C@]3(O)C(=O)C(C(N)=O)=C(O)[C@@H](N(C)C)[C@@H]3[C@@H](O)[C@@H]21 [Doxycycline] + C[n+]1ccc(-c2cc[n+](C)cc2)cc1 [Paraquat]
Conditions	Bliss interaction score
[1]	-0.019
[2]	0.0932
[3]	0.036
[4]	0.0382

Conditions	fitness
[5], first compound 0.02 µg/mL, partner 1.25 µg/mL	0.905
[5], first compound 0.02 µg/mL, partner 2.5 µg/mL	0.86
[5], first compound 0.02 µg/mL, partner 5 µg/mL	0.885
[5], first compound 0.04 µg/mL, partner 1.25 µg/mL	0.828
[5], first compound 0.04 µg/mL, partner 2.5 µg/mL	0.839
[5], first compound 0.04 µg/mL, partner 5 µg/mL	0.772
[5], first compound 0.08 µg/mL, partner 1.25 µg/mL	0.568
[6], first compound 0.0155 µg/mL, partner 1.5 µg/mL	0.979
[6], first compound 0.0155 µg/mL, partner 3 µg/mL	0.975
[6], first compound 0.0155 µg/mL, partner 6 µg/mL	0.978
[6], first compound 0.031 µg/mL, partner 1.5 µg/mL	0.923
[6], first compound 0.031 µg/mL, partner 3 µg/mL	0.877
[6], first compound 0.031 µg/mL, partner 6 µg/mL	0.898
[6], first compound 0.062 µg/mL, partner 1.5 µg/mL	0.845
[6], first compound 0.062 µg/mL, partner 3 µg/mL	0.841
[6], first compound 0.062 µg/mL, partner 6 µg/mL	0.806

fitness, [6], one replicate
Conditions	partner 1.5 µg/mL	partner 3 µg/mL	partner 6 µg/mL
first compound 0.003875 µg/mL	≥ 1	≥ 1	≥ 1
first compound 0.00775 µg/mL	≥ 1	0.962	0.986

C[C@H]1c2cccc(O)c2C(=O)C2=C(O)[C@]3(O)C(=O)C(C(N)=O)=C(O)[C@@H](N(C)C)[C@@H]3[C@@H](O)[C@@H]21 [Doxycycline] + Cc1cc(NS(=O)(=O)c2ccc(N)cc2)no1 [Sulfamethoxazol]
Conditions	Bliss interaction score
[1]	-0.0242
[2]	-0.0451
[3]	-0.0349
[4]	-0.0457

one replicate
Conditions	fitness
[5], first compound 0.02 µg/mL, partner 0.5 µg/mL	0.829
[5], first compound 0.04 µg/mL, partner 0.5 µg/mL	0.72
[5], first compound 0.08 µg/mL, partner 0.5 µg/mL	0.456
[6], first compound 0.003875 µg/mL, partner 1 µg/mL	≥ 1
[6], first compound 0.003875 µg/mL, partner 2 µg/mL	≥ 1
[6], first compound 0.003875 µg/mL, partner 4 µg/mL	≥ 1
[6], first compound 0.00775 µg/mL, partner 1 µg/mL	0.961
[6], first compound 0.00775 µg/mL, partner 2 µg/mL	0.967
[6], first compound 0.00775 µg/mL, partner 4 µg/mL	0.963

fitness
Conditions	first compound 0.0155 µg/mL	first compound 0.02 µg/mL	first compound 0.031 µg/mL	first compound 0.04 µg/mL	first compound 0.062 µg/mL	first compound 0.08 µg/mL
[5], partner 1 µg/mL	–	0.856	–	0.718	–	0.485
[5], partner 2 µg/mL	–	0.818	–	0.702	–	0.424
[5], partner 4 µg/mL	–	0.876	–	0.76	–	0.528
[6], partner 1 µg/mL	0.929	–	0.848	–	0.755	–
[6], partner 2 µg/mL	0.939	–	0.859	–	0.779	–
[6], partner 4 µg/mL	0.897	–	0.81	–	0.77	–

Reference: the supplement of paper PMC10627819
